Assay results taken from the supplement of paper PMC11997997.

Key:
[1] = tested on: Mycobacterium tuberculosis CDC1551 (intracellular, in murine BMDM); assay: area under intracellular growth-inhibition dose-response curve (AUC (% inhibition x dose, relative)); higher = more potent; conditions: duration: 6 days; dose range: 0.13-80 uM, 8 points
Outline: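 The value is the area under the growth-inhibition dose–response curve, calculated in GraphPad Prism. Primary murine bone marrow-derived macrophages were seeded in 384-well opaque plates and, 24 h later, infected for 1 h with luciferase-expressing M. tuberculosis CDC1551 at multiplicity of infection 1. Cells were then exposed for 6 days to an 8-dose, 2.5-fold series (final 80–0.13 μM). Growth was read with the Bright-Glo luciferin assay and normalised to a reference drug control and to the lowest-concentration wells.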

[2] = tested on: murine bone marrow-derived macrophages; assay: area under cytotoxicity dose-response curve (AUC (% cytotoxicity x dose, relative)); higher = more cytotoxic; conditions: duration: 6 days; dose range: 0.13-80 uM, 8 points
Outline: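 Values are the area under the cytotoxicity dose–response curve, calculated with GraphPad Prism version 10. Primary murine bone marrow-derived macrophages were exposed to final concentrations of 80–0.13 μM for 6 days, and viability was read by CellTiter-Glo luminescence with normalisation to vehicle and positive control wells.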

Cc1cc(NS(=O)(=O)c2ccc(NC(=S)Nc3ccc(Cl)cc3C)cc2)no1
area under intracellular growth-inhibition dose-response curve [1]: 102 | area under cytotoxicity dose-response curve [2]: 7.59

O=C(COc1ccccc1)NC1C(=O)N2C(C(=O)O)=C(Cl)CSC12 (stereo not drawn)
area under intracellular growth-inhibition dose-response curve [1]: 144 | area under cytotoxicity dose-response curve [2]: < 0

COc1cccc(CNC(=O)CN2C(=O)NC(Cc3ccccc3)(c3ccccc3)C2=O)c1 (stereo not drawn)
area under intracellular growth-inhibition dose-response curve [1]: 89.4 | area under cytotoxicity dose-response curve [2]: 1.94

C/C(CC(=O)Nc1cccc(F)c1)=N\NC(=O)c1ccncc1
area under intracellular growth-inhibition dose-response curve [1]: 272 | area under cytotoxicity dose-response curve [2]: 9.96

Cc1ccc(OCCCC(=O)Nc2ccc(S(=O)(=O)N3CCOCC3)cc2)cc1
area under intracellular growth-inhibition dose-response curve [1]: 53.8 | area under cytotoxicity dose-response curve [2]: 3.26

CCN(CC)S(=O)(=O)c1ccc2c(c1)c(=O)c(C(=O)NCCc1ccccc1)cn2C
area under intracellular growth-inhibition dose-response curve [1]: 157 | area under cytotoxicity dose-response curve [2]: 22.5

Cc1cc(OCCCC(=O)NNC(=O)c2ccncc2)ccc1Cl
area under intracellular growth-inhibition dose-response curve [1]: 245 | area under cytotoxicity dose-response curve [2]: 25.3

N#Cc1ccc(OCC(=O)N2CCN(S(=O)(=O)c3ccc(Cl)s3)CC2)cc1
area under intracellular growth-inhibition dose-response curve [1]: 31.9 | area under cytotoxicity dose-response curve [2]: 65.3

O=C(NC(=S)Nc1ccc(-c2nc3ncccc3o2)cc1)c1ccccc1F
area under intracellular growth-inhibition dose-response curve [1]: 138 | area under cytotoxicity dose-response curve [2]: < 0

CNc1nc(SC)nc2ccccc12
area under intracellular growth-inhibition dose-response curve [1]: 242 | area under cytotoxicity dose-response curve [2]: 77.9

O=C(C=Cc1cccs1)c1ccc(Cl)s1
area under intracellular growth-inhibition dose-response curve [1]: 235 | area under cytotoxicity dose-response curve [2]: 8.27

O=C(NN=C(Cc1ccccc1)Cc1ccccc1)c1ccncc1
area under intracellular growth-inhibition dose-response curve [1]: 257 | area under cytotoxicity dose-response curve [2]: 7.4

C=C1c2cccc(O)c2C(=O)C2C(=O)[C@]3(O)C(=O)C(C(N)=O)C(=O)[C@@H](N(C)C)[C@@H]3[C@@H](O)[C@H]12.Cl (stereo partly drawn)
area under intracellular growth-inhibition dose-response curve [1]: 272 | area under cytotoxicity dose-response curve [2]: 3.53

C/C(=N\NC(=O)c1ccncc1)C12CC3CC(CC(C3)C1)C2
area under intracellular growth-inhibition dose-response curve [1]: 239 | area under cytotoxicity dose-response curve [2]: 97.9

S=C(Nc1ccc(N2CCOCC2)cc1)Nc1ccc2snnc2c1
area under intracellular growth-inhibition dose-response curve [1]: 235 | area under cytotoxicity dose-response curve [2]: 57.1

Cc1cc(NS(=O)(=O)c2ccc(N)cc2)no1
area under intracellular growth-inhibition dose-response curve [1]: 57.8 | area under cytotoxicity dose-response curve [2]: 28.4

CCOC(=O)/C=C/C(=O)NNC(=O)c1ccccc1Cl
area under intracellular growth-inhibition dose-response curve [1]: 49.3 | area under cytotoxicity dose-response curve [2]: 186

O=C(CCN1C(=O)/C(=C/c2cccs2)SC1=S)Nc1ccc(C(=O)O)c(O)c1
area under intracellular growth-inhibition dose-response curve [1]: 189 | area under cytotoxicity dose-response curve [2]: 68.2

COc1cc(/C=N/NC(=O)c2ccncc2)ccc1Oc1ccc([N+](=O)[O-])cn1
area under intracellular growth-inhibition dose-response curve [1]: 194 | area under cytotoxicity dose-response curve [2]: 71.3

CCOC(=O)c1c(NC(=O)CN2C(=O)N(C)C3(CCCCC3)C2=O)sc(C(=O)N(C)C)c1C
area under intracellular growth-inhibition dose-response curve [1]: 65 | area under cytotoxicity dose-response curve [2]: 38.6

Cc1ccc2c(c1)sc(-c1ccc(N(C)C)cc1)[n+]2C.[I-]
area under intracellular growth-inhibition dose-response curve [1]: < 0 | area under cytotoxicity dose-response curve [2]: 125

CCN1/C(=C\c2ccc3ccccc3[n+]2CC)Sc2cc(C)ccc21.[I-]
area under intracellular growth-inhibition dose-response curve [1]: 117 | area under cytotoxicity dose-response curve [2]: 175

CCOc1ccc(-n2cc(-c3ccc(OC)c(OC)c3)nc2S)cc1
area under intracellular growth-inhibition dose-response curve [1]: 210 | area under cytotoxicity dose-response curve [2]: 81.6

COc1ccc(NC(=O)/C(Cl)=C(/Cl)S(=O)Cc2ccccc2Cl)cn1 (stereo not drawn)
area under intracellular growth-inhibition dose-response curve [1]: < 0 | area under cytotoxicity dose-response curve [2]: 140

Cc1c(Cl)cnn1CC(=O)NC1C(=O)N2C(C(=O)O)=C(CSc3nnnn3C)CSC12 (stereo not drawn)
area under intracellular growth-inhibition dose-response curve [1]: 168 | area under cytotoxicity dose-response curve [2]: 18.6

CC(=O)Nc1sc(N/N=C/c2ccc(O)cc2)nc1-c1ccc(C)cc1
area under intracellular growth-inhibition dose-response curve [1]: 181 | area under cytotoxicity dose-response curve [2]: 84.1

NS(=O)(=O)c1cccc(NC(=O)COC(=O)c2ccc(S(=O)(=O)N3CCOCC3)cc2)c1
area under intracellular growth-inhibition dose-response curve [1]: 112 | area under cytotoxicity dose-response curve [2]: 10

O=C(c1ccc([N+](=O)[O-])o1)N(Cc1nnc(-c2ccccc2Cl)o1)C1CC1
area under intracellular growth-inhibition dose-response curve [1]: 192 | area under cytotoxicity dose-response curve [2]: 41.5

COc1cc(/C=N/NC(=O)c2ccncc2)ccc1OC(=O)c1cccc(F)c1
area under intracellular growth-inhibition dose-response curve [1]: 111 | area under cytotoxicity dose-response curve [2]: 88.7

CN(C)c1ccc(S(=O)(=O)N2CCCCC2)cc1NC(=O)CCNC(=O)c1ccccc1Cl
area under intracellular growth-inhibition dose-response curve [1]: 67.5 | area under cytotoxicity dose-response curve [2]: < 0

C[n+]1c2ccccc2nc2ccc(NCCO)cc21.[O-][Cl+3]([O-])([O-])[O-]
area under intracellular growth-inhibition dose-response curve [1]: 107 | area under cytotoxicity dose-response curve [2]: < 0

O=[N+]([O-])c1ccccc1-c1cc(-c2ccccc2)cc(-c2ccccc2)[n+]1Cc1ccccc1Cl.[O-][Cl+3]([O-])([O-])[O-]
area under intracellular growth-inhibition dose-response curve [1]: 144 | area under cytotoxicity dose-response curve [2]: < 0

O=C(CC12CC3CC(CC(C3)C1)C2)N1CCCC1
area under intracellular growth-inhibition dose-response curve [1]: 216 | area under cytotoxicity dose-response curve [2]: 75.6

O=C(NCC1CC1)c1cc([N+](=O)[O-])cc([N+](=O)[O-])c1
area under intracellular growth-inhibition dose-response curve [1]: 202 | area under cytotoxicity dose-response curve [2]: 36.7

COc1cccc2c1C(=O)c1c(O)c3c(c(O)c1C2=O)C[C@](O)(C(C)=O)C[C@H]3O[C@@H]1C[C@@H](N)[C@@H](O)[C@@H](C)O1.Cl
area under intracellular growth-inhibition dose-response curve [1]: 44.8 | area under cytotoxicity dose-response curve [2]: 172

CSc1ncccc1C(=O)OCC(=O)c1ccc[nH]1
area under intracellular growth-inhibition dose-response curve [1]: 159 | area under cytotoxicity dose-response curve [2]: < 0

CN(CC(=O)Nc1ccccc1Br)C(=O)c1ccccc1Sc1ccccc1C#N
area under intracellular growth-inhibition dose-response curve [1]: 45.3 | area under cytotoxicity dose-response curve [2]: 24.4

CNC[C@H](Cc1ccccc1)NC[C@@H](Cc1cccc2ccccc12)NCCc1ccc(C)cc1
area under intracellular growth-inhibition dose-response curve [1]: 53.8 | area under cytotoxicity dose-response curve [2]: 108

O=C(COC(=O)C1CC2CCCC(C1)C2=O)Nc1ccc(F)c(Cl)c1 (stereo not drawn)
area under intracellular growth-inhibition dose-response curve [1]: 90.3 | area under cytotoxicity dose-response curve [2]: 44.5

CN1CCN(c2c(F)cc3c(=O)c(C(=O)[O-])cn4c3c2OCN4C)CC1
area under intracellular growth-inhibition dose-response curve [1]: 187 | area under cytotoxicity dose-response curve [2]: 18.2

CCOc1ccc(-c2c(C)[n+](-c3ccc(OCC)cc3)c3n2CCCCC3)cc1.[O-][Cl+3]([O-])([O-])[O-]
area under intracellular growth-inhibition dose-response curve [1]: 57.1 | area under cytotoxicity dose-response curve [2]: 8.93

O=C(N/N=C/c1ccc(O)c([N+](=O)[O-])c1)c1ccncc1
area under intracellular growth-inhibition dose-response curve [1]: 256 | area under cytotoxicity dose-response curve [2]: < 0

Nc1c2c(nc3sc4c(c13)CCCC4)CCCC2
area under intracellular growth-inhibition dose-response curve [1]: 125 | area under cytotoxicity dose-response curve [2]: 77.7

Cc1ccc(/C=C2\SC(N3CCCC3)=NC2=O)cc1
area under intracellular growth-inhibition dose-response curve [1]: 220 | area under cytotoxicity dose-response curve [2]: 22.9

CC(C)Oc1cccc(C(=O)N2CCCC2)c1
area under intracellular growth-inhibition dose-response curve [1]: 43.1 | area under cytotoxicity dose-response curve [2]: 54.6

O=C(c1ccc([N+](=O)[O-])o1)N1CCN(c2nc3c(Cl)cccc3s2)CC1
area under intracellular growth-inhibition dose-response curve [1]: 18.1 | area under cytotoxicity dose-response curve [2]: 124

Cc1ccc(-c2cc(-c3ccc(C)cc3)[n+](-c3ccccc3)c(-c3ccc(C)cc3)c2)cc1.[O-][Cl+3]([O-])([O-])[O-]
area under intracellular growth-inhibition dose-response curve [1]: 268 | area under cytotoxicity dose-response curve [2]: 85.5

O=C(Nc1ccc(Br)cc1)NC1CCCCCCC1
area under intracellular growth-inhibition dose-response curve [1]: 263 | area under cytotoxicity dose-response curve [2]: 26.1

O=C(NCc1ccc2c(c1)OCO2)c1ccc(Br)o1
area under intracellular growth-inhibition dose-response curve [1]: 174 | area under cytotoxicity dose-response curve [2]: 76.4

Nc1ccc(C(=O)[O-])c(O)c1.[Na+]
area under intracellular growth-inhibition dose-response curve [1]: 182 | area under cytotoxicity dose-response curve [2]: 27.5

O=C(c1ccc([N+](=O)[O-])o1)N1CCN(c2nc3c(F)cc(F)cc3s2)CC1
area under intracellular growth-inhibition dose-response curve [1]: 20.8 | area under cytotoxicity dose-response curve [2]: 161

CN(C(=O)CSc1ncnc2sc3c(c12)CCC3)C1CCS(=O)(=O)C1 (stereo not drawn)
area under intracellular growth-inhibition dose-response curve [1]: 60.2 | area under cytotoxicity dose-response curve [2]: 4.88

O=[N+]([O-])c1cc(Cl)c(O)c(-[n+]2c(-c3ccccc3)cc(-c3ccccc3)cc2-c2ccccc2)c1.[O-][Cl+3]([O-])([O-])[O-]
area under intracellular growth-inhibition dose-response curve [1]: 150 | area under cytotoxicity dose-response curve [2]: 35.3

CC1CCCC(C)N1C(=O)COC(=O)c1cccnc1Cl (stereo not drawn)
area under intracellular growth-inhibition dose-response curve [1]: 33.7 | area under cytotoxicity dose-response curve [2]: 9.13

COc1ccccc1C=NNC(=O)c1ccncc1
area under intracellular growth-inhibition dose-response curve [1]: 266 | area under cytotoxicity dose-response curve [2]: 9

C/C(CC(=O)Nc1ccc(N(C)C)cc1)=N\NC(=O)c1ccncc1
area under intracellular growth-inhibition dose-response curve [1]: 219 | area under cytotoxicity dose-response curve [2]: 20.2

CC(C)Cn1c([N+](=O)[O-])nc2c1c(=O)[nH]c(=O)n2C
area under intracellular growth-inhibition dose-response curve [1]: 5.16 | area under cytotoxicity dose-response curve [2]: 40.1

CCCCCCn1c(=O)c(C(=O)Nc2ncccc2C)c(O)c2ccccc21
area under intracellular growth-inhibition dose-response curve [1]: 237 | area under cytotoxicity dose-response curve [2]: 47.2

Cc1cc(C(=O)NC2CCCCCCC2)ccc1[N+](=O)[O-]
area under intracellular growth-inhibition dose-response curve [1]: 220 | area under cytotoxicity dose-response curve [2]: < 0
